Data from patent US8536332B2, “Modulating signal transduction pathways with substituted pyridol [2,3-b] pyrazines” (Aeterna Zentaris GmbH, priority 2007, dated 2013).

| SMILES | melting point [°C] |
| --- | --- |
| COc1cc(-c2ccc3ncc(NC(=O)NCCc4ccccc4)nc3n2)ccc1O [Compound 26, 1-[6-(4-Hydroxy-3-methoxy-phenyl)-pyrido[2,3-b]pyrazin-3-yl]-3-phenethyl-urea] | 235 to 237 |
| COc1cc(-c2ccc3ncc(NC(=O)NC4CCC(C)CC4)nc3n2)ccc1O (stereo not drawn) [Compound 612, 1-[6-(4-Hydroxy-3-methoxy-phenyl)-pyrido[2,3-b]pyrazin-3-yl]-3-(4-methyl-cyclohexyl)-urea] | 272 to 273 |
| CCNC(=S)Nc1ccc2ncc(Nc3ccc(O)c(Cl)c3)nc2n1 [Compound 441, 1-[3-(3-Chloro-4-hydroxy-phenylamino)-pyrido[2,3-b]pyrazin-6-yl]-3-ethyl-thiourea] | 220 |
| CCNC(=O)Nc1cnc2ccc(N3CCOCC3)nc2n1 [Compound 225, 1-Ethyl-3-(6-morpholin-4-yl-pyrido[2,3-b]pyrazin-3-yl)-urea] | 243 to 245 |
| CCN(CC)C(=O)Nc1cnc2ccc(-c3ccc(O)c(OC)c3)nc2n1 [Compound 632, 1,1-Diethyl-3-[6-(4-hydroxy-3-methoxy-phenyl)-pyrido[2,3-b]pyrazin-3-yl]-urea] | 214 to 216 |
| O=C(Nc1cnc2ccc(-c3cc(Cl)c(O)c(Cl)c3)nc2n1)NC1CCCCCCC1 [Compound 556, 1-Cyclooctyl-3-[6-(3,5-dichloro-4-hydroxy-phenyl)-pyrido[2,3-b]pyrazin-3-yl]-urea] | 261 to 263 |
| CCNC(=O)Nc1ccc2ncc(-c3cccc(OC)c3OC)nc2n1 [Compound 68, 1-[3-(2,3-Dimethoxy-phenyl)-pyrido[2,3-b]pyrazin-6-yl]-3-ethyl-urea] | 182 to 185 |
| CCCCNC(=O)Nc1cnc2ccc(-c3ccc(O)c(OC)c3)nc2n1 [Compound 631, 1-Butyl-3-[6-(4-hydroxy-3-methoxy-phenyl)-pyrido[2,3-b]pyrazin-3-yl]-urea] | 223 to 226 |
| CCNC(=S)Nc1ccc2ncc(Nc3cc(Cl)c(O)c(Cl)c3)nc2n1 [Compound 166, 1-[3-(3,5-Dichloro-4-hydroxy-phenylamino)-pyrido[2,3-b]pyrazin-6-yl]-3-ethyl-thiourea] | 278 |
| CCNC(=S)Nc1cnc2ccc(Nc3ccc(O)cc3)nc2n1 [Compound 198, 1-Ethyl-3-[6-(4-hydroxy-phenylamino)-pyrido[2,3-b]pyrazin-3-yl]-thiourea] | 258 |
| COc1cc(-c2ccc3ncc(NC(=O)NC(C)(C)CC(C)(C)C)nc3n2)ccc1O [Compound 613, 1-[6-(4-Hydroxy-3-methoxy-phenyl)-pyrido[2,3-b]pyrazin-3-yl]-3-(1,1,3,3-tetramethyl-butyl)-urea] | 232 to 236 |
| CCNC(=O)Nc1ccc2ncc(-c3cc(Cl)ccc3OC)nc2n1 [Compound 91, 1-[3-(5-Chloro-2-methoxy-phenyl)-pyrido[2,3-b]pyrazin-6-yl]-3-ethyl-urea] | 254 to 257 |
| CCNC(=O)Nc1ccc2ncc(-c3ccccc3C(F)(F)F)nc2n1 [Compound 97, 1-Ethyl-3-[3-(2-trifluoromethyl-phenyl)-pyrido[2,3-b]pyrazin-6-yl]-urea] | 240 to 243 |
| CCNC(=O)Nc1ccc2ncc(-c3cccc(OCC)c3F)nc2n1 [Compound 146, 1-[3-(3-Ethoxy-2-fluoro-phenyl)-pyrido[2,3-b]pyrazin-6-yl]-3-ethyl-urea] | 202 to 204 |
| CCNC(=O)Nc1ccc2ncc(-c3ccc(C)c(F)c3)nc2n1 [Compound 83, 1-Ethyl-3-[3-(3-fluoro-4-methyl-phenyl)-pyrido[2,3-b]pyrazin-6-yl]-urea] | 247.8 to 252.4 |
| CCNC(=O)Nc1ccc2ncc(-c3cccc(OCC)c3)nc2n1 [Compound 130, 1-[3-(3-Ethoxy-phenyl)-pyrido[2,3-b]pyrazin-6-yl]-3-ethyl-urea] | 220 to 223 |
| COc1ccc(-c2ccc3ncc(NC(=O)NC4CCCCC4)nc3n2)cc1OC [Compound 571, 1-Cyclohexyl-3-[6-(3,4-dimethoxy-phenyl)-pyrido[2,3-b]pyrazin-3-yl]-urea] | 262 to 264 |
| CCNC(=O)Nc1cnc2ccc(Nc3ccc(OC)c(Cl)c3)nc2n1 [Compound 201, 1-[6-(3-Chloro-4-methoxy-phenylamino)-pyrido[2,3-b]pyrazin-3-yl]-3-ethyl-urea] | 260 |
| CCNC(=O)Nc1ccc2ncc(-c3cccc([N+](=O)[O-])c3)nc2n1 [Compound 101, 1-Ethyl-3-[3-(3-nitro-phenyl)-pyrido[2,3-b]pyrazin-6-yl]-urea] | 249 to 253 |
| COc1cc(-c2ccc3ncc(NC(=O)Nc4ccc(N(C)C)cc4)nc3n2)ccc1O [Compound 602, 1-(4-Dimethylamino-phenyl)-3-[6-(4-hydroxy-3-methoxy-phenyl)-pyrido[2,3-b]pyrazin-3-yl]-urea] | 287 to 290 |
| CCNc1ccc2ncc(Nc3cc(OC)c(OC)c(OC)c3)nc2n1 [Compound 733, N*6*-Ethyl-N*3*- (3,4,5-trimethoxy-phenyl)-pyrido[2,3-b]pyrazine-3,6-diamine] | 110 |
| CCNC(=O)Nc1ccc2ncc(-c3cnc4[nH]ccc4c3)nc2n1 [Compound 61, 1-Ethyl-3-[3-(1H-pyrrolo[2,3-b]pyridin-5-yl)-pyrido[2,3-b]pyrazin-6-yl]-urea] | 270 to 274 |
| CCNC(=O)Nc1cnc2ccc(-c3ccc(C)c(N)c3)nc2n1 [Compound 180, 1-[6-(3-Amino-4-methyl-phenyl)-pyrido[2,3-b]pyrazin-3-yl]-3-ethyl-urea] | > 320 |
| CCCCCNC(=S)Nc1ccc2ncc(Nc3cc(OC)c(OC)c(OC)c3)nc2n1 [Compound 702, 1-Pentyl-3-[3-(3,4,5-trimethoxy-phenylamino)-pyrido[2,3-b]pyrazin-6-yl]-thiourea] | 210 |
| COc1ccc(-c2ccc3ncc(NC(=O)NC(C)(C)C)nc3n2)cc1OC [Compound 568, 1-tert-Butyl-3-[6-(3,4-dimethoxy-phenyl)-pyrido[2,3-b]pyrazin-3-yl]-urea] | 230 to 233 |
| COc1ccc(-c2ccc3ncc(NC(=O)Nc4ccccc4)nc3n2)cc1OC [Compound 580, 1-[6-(3,4-Dimethoxy-phenyl)-pyrido[2,3-b]pyrazin-3-yl]-3-phenyl-urea] | 248 to 251 |
| COc1cc(-c2ccc3ncc(NC(=O)NC4CCCCCCCCCCC4)nc3n2)ccc1O [Compound 628, 1-Cyclododecyl-3-[6-(4-hydroxy-3-methoxy-phenyl)-pyrido[2,3-b]pyrazin-3-yl]-urea] | 233 to 235 |
| CCNC(=S)Nc1cnc2ccc(Nc3ccc(OC)c(Cl)c3)nc2n1 [Compound 202, 1-[6-(3-Chloro-4-methoxy-phenylamino)-pyrido[2,3-b]pyrazin-3-yl]-3-ethyl-thiourea] | 225 |
| CCNC(=O)Nc1ccc2ncc(-c3ccc(O)c(Br)c3)nc2n1 [Compound 47, 1-[3-(3-Bromo-4-hydroxy-phenyl)-pyrido[2,3-b]pyrazin-6-yl]-3-ethyl-urea] | 337 to 339 |
| CCCCCCNC(=O)Nc1cnc2ccc(-c3ccc(O)c(OC)c3)nc2n1 [Compound 627, 1-Hexyl-3-[6-(4-hydroxy-3-methoxy-phenyl)-pyrido[2,3-b]pyrazin-3-yl]-urea] | 234 to 235 |
